The source of these data is US4466980A, “Thiaprostaglandin E1 derivatives, process for production thereof, and pharmaceutical use thereof” (Teijin Limited, priority 1980, dated 1984).

Each structure is given as a SMILES string. Converted amounts (≈) assume the structure as drawn.

For test [1], the system named is platelet aggregation. Put plainly: platelet aggregation inhibiting activity of prior 11-deoxy-7S-prostaglandins E1 (inventors' investigations). In kind it is cell-based.
The test system of test [2] is platelet aggregation. Put plainly: in vitro inhibitory activity of platelet aggregation (ADP). In kind it is cell-based, rabbit (Japanese domestic white male). The note with it: Oryctolagus cuniculus, rabbit PRP, 10 μM ADP, 37° C., read-out: IC50 (minimum concentration which inhibited more than 50% of platelet aggregation). How it is done:
The in vitro platelet aggregation imhibiting activity of the compounds of the invention were examined by using rabbits. Blood was withdrawn from the ear vein of Japanese domestic white male rabbits weighing 2.5 to 3.5 kg. A mixture of a 3.8% trisodium citrate solution and the blood in a ratio of 1:9 was centrifuged at a speed of 1000 rpm for 10 minutes. The upper layer was separated as platelet-rich plasma (PRP). The lower layer was further centrifuged at a speed of 2800 rpm for 10 minutes. The upper layer was separated as platelet-poor plasma (PPP). The number of platelets was adjusted to 6×10^5 /μl to 7×10^5 /μl by diluting the PRP with PPP. 25 microliters of the test compounds prepared as shown below was added in an amount of 25 to 250 microliters of PRP after the adjustment, and the mixture was pre-incubated at 37° C. for 2 minutes, and then 10 μM (final) of ADP was added. By using an aggregometer, changes in transmission were recorded.
The drug was dissolved in ethanol to a concentration of 10 mg/ml, and successively diluted with phosphate buffer (pH 7.4) prior to use.
The rate of inhibition of platelet aggregation was determined from the following equation. [formula] To : the transmittance of the system containing the phosphate buffer, T: the transmittance of the sytem to which the test drug was added.
The minimum concentration of the drug which inhibited more than 50% of platelet aggregation was shown as an IC50 value.

The test system of test [3] is ethanol ulcer (stomach). The experiment in a line: ethanol ulcer test (anti-ulcer action). In kind it is in vivo, SD-strain rats. How it is done: An ethanol ulcer test was carried out by the following processure.
SD-strain rats (body weight 200 to 220 g; 7 weeks old) were fasted for 24 hours, and a solution of each of the test compounds in physiological saline buffered with phosphate buffer at pH 7.5 was orally administered. Thirty minutes after the administration, 75% ethanol was orally administered in a dose of 1 ml/kg. One hour later, the abdomen was incised to isolate the stomach. […] The total of these lengths was defined as the ulcer index. A control group was given physiological saline buffered with phosphate buffer (pH 7.5) and 75% ethanol.

For test [4], the system named is blood pressure and heart beat rate of rats. The experiment in a line: hypotensive activity and heart beat rate, intravenous injection in anesthetized rats. In kind it is in vivo, male wister rats. To be noted: Rattus norvegicus, i.v. How it is done: (1) The actions of the thiaprostaglandin E1 derivatives of the invention on the blood pressure and heart beat rate of rats were examined by intravenous injection under anesthesia. Male wister rats weighing about 250 g were used. Urethane (500 mg/kg) and α-chloralose (100 mg/kg) were intraperitoneally administered to the rats. The rats were anesthetized and fixed in place. Each of the test compounds was dissolved in a small amount of ethanol and diluted with physiological saline to adjust the final ethanol concentration to not more than 5%. The solution was intravenously injected into the rats through a catheter inserted into the femoral vein. The blood pressure of the rats was measured by a pressure transducer through a catheter inserted into the carotid artery of the rats. The heart beat rate was determined from the blood pressure pulse. The action of the test compound of the blood pressure was expressed as the dosage (p-ED20, μg/kg) of the test compound which caused a 20% lowering of the mean blood pressure before administration of the compound. The action of the test compound on the heart rate was expressed as the dosage (H-ED10, μg/kg) of the test compound which caused a 10% increase of the heart rate from the heart beat rate before administration of the test compound.

The subject of test [5] is platelet aggregation. The experiment in a line: extra vivo inhibitory activity of platelet aggregation after oral administration. In kind it is in vivo, guinea pigs (Hartley strain). To be noted: Cavia porcellus; for inhibition at 3 mg/kg: 3 mg/kg p.o.; for inhibition at 10 mg/kg: 10 mg/kg p.o. How it is done: The extra vivo platelet aggregation inhibitory activity of the 7-thiaprostaglandin E1 derivatives of the invention were measured by using guinea pigs. A test drug prepared as a 30% ethanol solution of each of the compounds of the invention in ethanol diluted with physiological saline and as a control 30% ethanol solution were orally adminstered in a dose of 1 ml/kg to Hartleystrain guinea pigs having a body weight of 350 to 450 g which had been fasted for 17 hours. 1 hour or 4 hours after the administration of the compound, blood was drawn off by the cardiac puncture using trisodium citrate so that the ratio of the blood to 3.8% trisodium citrate was 9:1. The blood was centrifuged at a speed of 700 rpm for 10 minutes. The upper layer was separated as plateletrich plasma (PRP). The lower layer was further centrifuged at a speed of 2800 rpm for 10 minutes. The upper layer was separated as platelet poor plasma (PPP). 250 microliters of the resulting PRP was taken into an aggregometer cuvette, and incubated at 37° C. for 2 minutes. Then, 25 microliters of a […] ADP disodium solution adjusted by dissolving with 0.1M tris-HCl buffer (ph 8.0) was added. The aggregation curve was recorded for 3 minutes. The maximum degree of aggregation of platelets within this time period was read, and the rate of inhibitor of platelet aggregation was calculated from the following equation. [formula] TC : the transmittance of a control group (to which only the 30% ethanol solution was administered),
TD : the transmittance of a drug administered group.

The mark [6] stands for this setting: Rattus norvegicus, po, 100 μg/kg p.o., read-out: Ulcer inhibiting rate (%).

With `CCCC(C)C[C@H](O)/C=C/[C@H]1CCC(=O)[C@@H]1SCCCCCC(=O)OC` (stereo partly drawn), the “platelet aggregation inhibiting activity (in words)” value in test [1] was “very weak”.

Consider `CCCCC[C@H](O)/C=C/[C@H]1CCC(=O)[C@@H]1SCCCCCC(=O)OC`, for which, in test [1], the “platelet aggregation inhibiting activity (in words)” value is “very weak”.

As to `CCCCC[C@H](O)/C=C/[C@H]1CCC(=O)[C@@H]1SCCCCCC(=O)O` [11-deoxy-7S-prostaglandin E1], in test [1], the “platelet aggregation inhibiting activity (in words)” value was “very weak”.

`CCCC(C)C[C@H](O)/C=C/[C@H]1CCC(=O)[C@@H]1SCCCCCC(=O)O` (stereo partly drawn) [11-deoxy-17-methyl-7S-prostaglandin E1]: the “platelet aggregation inhibiting activity (in words)” value in test [1] was “very weak”.

As for `O=C(O)CCSCCC[C@H]1C(=O)C[C@@H](O)[C@@H]1/C=C/[C@@H](O)C1CCCCC1` [Compound 403, 16,17,18,19,20-pentanor-15-cyclohexyl-4-thiaprostaglandin E1], the IC50 in test [2] is 2.8 µg/mL (≈ 7.28 µM). Also, in test [3] (100 μg/kg p.o., ** P < 0.01), the “Ulcer index (mm)” value is given as 6.0 ± 3.8 mm. For the same compound, the inhibition at 0.1 mg/kg in test [3] (setting [6]) came out at 91.2%. In addition, the “antiulcer action (in words)” value in test [3] (p.o., Table 6) is reported as “nearly the same antiulcer action as prostaglandin E1”.

Regarding `CCCCC[C@H](O)/C=C/[C@H]1[C@H](O)CC(=O)[C@@H]1CCCCCCC(=O)O` [PGE1, prostaglandin E1], the ED (10% increase of heart rate) in test [4] (read-out: H-ED10 (dosage causing a 10% increase of the heart rate)) is greater than 10 µg/kg. In test [4] (read-out: P-ED20 (dosage causing a 20% lowering of the mean blood pressure)), the ED (20% lowering of blood pressure) was determined as 1.21 µg/kg. Also, the inhibition at 3 mg/kg turned out to be 0% in test [5] (1 hr) and 25.9% in test [5] (4 hr). Besides, the results for the inhibition at 10 mg/kg in test [5] (1 hr) and in test [5] (4 hr) were 0% and 16.9%, respectively. For the same compound, the “Ulcer index (mm)” value in test [3] (30 μg/kg p.o.) was determined as 26.8 ± 12.5 mm; in test [3] (100 μg/kg p.o., ** P < 0.01) it was 1.0 ± 1.0 mm. For the same compound, the inhibition at 0.03 mg/kg in test [3] (Rattus norvegicus, po, 30 μg/kg p.o., read-out: Ulcer inhibiting rate (%)) turned out to be 60.8%. For the same compound, in test [3] (setting [6]), the inhibition at 0.1 mg/kg was 98.5%.
